According to patent US4625016A, “Collagen inhibiting compositions and processes for manufacturing and using same” (University of Medicine and Dentistry of New Jersey, priority 1983, dated 1986):

Tests used:
[1] = system: normal human skin fibroblasts; experiment: Attachment and growth of human skin fibroblasts in plastic culture flasks (assay of collagen synthesis); assay type: cell-based
Excerpt: The principle of the test system is that when collagen-producing cells, such as normal skin fibroblasts are introduced into a plastic flask containing a nutrient medium, the cells attach to the surface of the flask and grow. However, firm attachment of normal fibroblasts to the surface of the flask requires that the cells first synthesize a "pad" comprised of collagen fibers and several other materials through which the collagen producing cells attach to the plastic surface. If synthesis of normal collagen fibers is prevented, the collagen-producing cells, such as the normal skin fibroblasts, will not attach and therefore will not grow. […] The manner in which cis-4-hydroxy-L-proline produces these effects has been disclosed in 336 Biochimica et Biophysica Acta 234, (1974); 174 Archives of Biochemistry and Biophysics 381 (1976); 226 Nature 63 (1977); and 272 Nature 622 (1978).
None of the three polymeric compositions are soluble in water and are consequently dissolved in 50% acetic acid and water. The solution is placed dropwise on a microscopic coverslip and the solvent evaporated with warm air from a hair dryer. The coverslip, coated with the composition, is then placed in a plastic culture flask (75 cm^2; Falcon). From 5×10^5 to 10.5×10^5 normal human fibroblasts in 2 ml of cell culture medium are added to the flask. The flask is incubated at 37° C. in 5% carbon dioxide and 95% air for 3 to 5 days, and the number of cells in the flask counted. Control sample contained microscopic coverslips treated with an equal volume of solvent and air-dried.

KB cells = conditions: as disclosed in 266 Nature 63 (1977); cited from earlier work

With `O=C(O)[C@@H]1C[C@H](O)CN1` [cis-4-Hydroxy-L-proline, cis-4-hydroxy-L-proline] the “Cells per flask, Final” value ([1]; Expt. 1, dosage level 250 μg/ml, initial 5.0 × 10^5, 3 to 5 days, None: 67) was < 1 × 10^5, the “Cells per flask, Final” value ([1]; Expt. 2, dosage level 100 μg/ml, initial 10.3 × 10^5, None: 98) was 2.2 × 10^5 and the “Cells per flask, Final” value ([1]; Expt. 3, dosage level 50 μg/ml, initial 7.0 × 10^5, None: 56) was 12 × 10^5. The “Cells per flask, Final” value ([1]; Expt. 3, dosage level 150 μg/ml, initial 7.0 × 10^5, None: 56) was 1.3 × 10^5, the “Attachment and growth of normal fibroblasts (in words)” value ([1]; no dose stated) was “prevents attachment and growth” and the “Growth of cells which do not produce collagen (in words)” value (KB cells) was “not inhibited”.
